Here are results for 22 molecules from patent US11807644B2 (PMV Pharmaceuticals, Inc., priority 2020, dated 2023).

In this test the target is T1, recombinant His-tag Y220C p53 DBD protein (Homo sapiens, UniProt P04637, Y220C).
T1 construct: recombinant His-tag Y220C p53 DBD protein (amino acids #˜94-312)
Description: In vitro DNA binding activity assay (TR-FRET): binding of His-tag Y220C p53 DBD to biotin-labeled consensus DNA. Type of test: biochemical. As to conditions: for Y220C SC150 (μM): SC150 = concentration to increase DNA binding by […], His-tag Y220C p53 DBD, biotin-labeled consensus DNA. Background: In TR-FRET formats the signal depends on donor and acceptor labels being close together.

Turning to `COc1cc(S(C)(=O)=O)ccc1NCc1nnc(-c2cc3c(N[C@H]4CCN(C)C[C@H]4F)cccc3n2CC(F)(F)F)s1` [Compound 61B, N-[(3R,4S)-3-fluoro-1-methylpiperidin-4-yl]-2-(5-{[(4-methanesulfonyl-2-methoxyphenyl)amino]methyl}-1,3,4-thiadiazol-2-yl)-1-(2,2,2-trifluoroethyl)-1H-indol-4-amine], the “Y220C SC150 (μM)” value is listed as “* (* = 0 μM ≤ SC150 < 0.1 μM)”.
Same read-out and setting: as for `COC(C)(C)Cn1ccc(C(=O)NCc2nc(-c3cc4c(N[C@@H]5CCN(C)C[C@@H]5F)cccc4n3CC(F)(F)F)no2)c1` [Compound 251B, N-{[3-(4-{[(3S,4R)-3-fluoro-1-methylpiperidin-4-yl]amino}-1-(2,2,2-trifluoroethyl)-1H-indol-2-yl)-1,2,4-oxadiazol-5-yl]methyl}-1-(2-methoxy-2-methylpropyl)-1H-pyrrole-3-carboxamide], the entry is “* (* = 0 μM ≤ SC150 < 0.1 μM)”.
Still for that read-out and setting: then `CN1CC[C@@H](Nc2cccc3c2cc(-c2noc(CNC(=O)c4ccn(C5(CO)CC5)c4)n2)n3CC(F)(F)F)[C@@H](F)C1` [Compound 472B, N-{[3-(4-{[(3S,4R)-3-fluoro-1-methylpiperidin-4-yl]amino}-1-(2,2,2-trifluoroethyl)-1H-indol-2-yl)-1,2,4-oxadiazol-5-yl]methyl}-1-[1-(hydroxymethyl)cyclopropyl]-1H-pyrrole-3-carboxamide], with “* (* = 0 μM ≤ SC150 < 0.1 μM)”; and `CC(C)c1ncc(C(=O)NCc2nc(-c3cc4c(N[C@@H]5CCN(C)C[C@@H]5F)cccc4n3CC(F)(F)F)no2)s1` [Compound 431B, N-{[3-(4-{[(3S,4R)-3-fluoro-1-methylpiperidin-4-yl]amino}-1-(2,2,2-trifluoroethyl)-1H-indol-2-yl)-1,2,4-oxadiazol-5-yl]methyl}-2-(propan-2-yl)-1,3-thiazole-5-carboxamide], with “* (* = 0 μM ≤ SC150 < 0.1 μM)”; and `COc1ccc(C(=O)NCc2nc(-c3cc4c(N[C@@H]5CCN(C)C[C@@H]5F)cccc4n3CC(F)(F)F)no2)cc1` [Compound 295B, N-{[3-(4-{[(3S,4R)-3-fluoro-1-methylpiperidin-4-yl]amino}-1-(2,2,2-trifluoroethyl)-1H-indol-2-yl)-1,2,4-oxadiazol-5-yl]methyl}-4-methoxybenzamide], with “* (* = 0 μM ≤ SC150 < 0.1 μM)”.
Same read-out and setting: then `CO[C@H]1CCCC[C@@H]1n1ccc(C(=O)NCc2nc(-c3cc4c(N[C@@H]5CCN(C)C[C@@H]5F)cccc4n3CC(F)(F)F)no2)c1` (relative stereo) [Compound 384B], with “* (* = 0 μM ≤ SC150 < 0.1 μM)”; and `CN1CC[C@@H](Nc2cccc3c2cc(-c2noc(CNC(=O)c4csc(Cl)c4)n2)n3CC(F)(F)F)[C@@H](F)C1` [Compound 213B, 5-chloro-N-{[3-(4-{[(3S,4R)-3-fluoro-1-methylpiperidin-4-yl]amino}-1-(2,2,2-trifluoroethyl)-1H-indol-2-yl)-1,2,4-oxadiazol-5-yl]methyl}thiophene-3-carboxamide], with “* (* = 0 μM ≤ SC150 < 0.1 μM)”.
On to `CN1CCC(Nc2cccc3c2cc(-c2nnc(CNC(=O)c4cc[nH]c4)s2)n3CC(F)(F)F)CC1` [Compound 78B, N-[(5-{4-[(1-methylpiperidin-4-yl)amino]-1-(2,2,2-trifluoroethyl)-1H-indol-2-yl}-1,3,4-thiadiazol-2-yl)methyl]-1H-pyrrole-3-carboxamide], for which the “Y220C SC150 (μM)” value is listed as “* (* = 0 μM ≤ SC150 < 0.1 μM)”.
The same measure, in the same setting: as for `CN1CC[C@@H](Nc2cccc3c2cc(-c2noc(CNC(=O)C4CC4)n2)n3CC(F)(F)F)[C@@H](F)C1` [Compound 173B, N-{[3-(4-{[(3S,4R)-3-fluoro-1-methylpiperidin-4-yl]amino}-1-(2,2,2-trifluoroethyl)-1H-indol-2-yl)-1,2,4-oxadiazol-5-yl]methyl}cyclopropanecarboxamide], the entry is “* (* = 0 μM ≤ SC150 < 0.1 μM)”.
The same measure, in the same setting: as for `CC(CO)n1ccc(C(=O)NCc2nc(-c3cc4c(N[C@@H]5CCN(C)C[C@@H]5F)cccc4n3CC(F)(F)F)no2)c1` (stereo partly drawn) [Compound 237B, N-{[3-(4-{[(3S,4R)-3-fluoro-1-methylpiperidin-4-yl]amino}-1-(2,2,2-trifluoroethyl)-1H-indol-2-yl)-1,2,4-oxadiazol-5-yl]methyl}-1-(1-hydroxypropan-2-yl)-1H-pyrrole-3-carboxamide], the entry is “* (* = 0 μM ≤ SC150 < 0.1 μM)”.
On the same count and under the same terms, then `CN1CCC(Nc2cccc3c2cc(-c2noc(CNC(=O)Nc4ccccc4)n2)n3CC(F)(F)F)CC1` [Compound 153B, 3-[(3-{4-[(1-methylpiperidin-4-yl)amino]-1-(2,2,2-trifluoroethyl)-1H-indol-2-yl}-1,2,4-oxadiazol-5-yl)methyl]-1-phenylurea], with “* (* = 0 μM ≤ SC150 < 0.1 μM)”.
`CN1CC[C@@H](Nc2cccc3c2cc(-c2noc(C(=O)NCC4CC4)n2)n3CC(F)(F)F)[C@@H](F)C1` [Compound 545B, N-(cyclopropylmethyl)-3-(4-{[(3S,4R)-3-fluoro-1-methylpiperidin-4-yl]amino}-1-(2,2,2-trifluoroethyl)-1H-indol-2-yl)-1,2,4-oxadiazole-5-carboxamide]: the “Y220C SC150 (μM)” value is reported as “** (** = 0.1 μM ≤ SC150 < 0.5 μM)”.
Take `CNCc1ccc(-c2cc3c(NC4CCS(=O)(=O)CC4)cccc3n2CC(F)(F)F)cc1` [Compound 3A, 4-[(2-{4-[(methylamino)methyl]phenyl}-1-(2,2,2-trifluoroethyl)-1H-indol-4-yl)amino]-1λ^6-thiane-1,1-dione]: the “SC150 (μM)” value (concentration to increase DNA binding by […], incubated at either 27° C. or 29° C. for 60 min) is on record as “+++ (+++ = 5 μM ≤ SC150 < 10 μM)”.
Turning to `CN1CC[C@@H](Nc2cccc3c2cc(-c2noc(CNC(=O)c4csc(C(C)(C)C)n4)n2)n3CC(F)(F)F)[C@@H](F)C1` [Compound 438B, 2-tert-butyl-N-{[3-(4-{[(3S,4R)-3-fluoro-1-methylpiperidin-4-yl]amino}-1-(2,2,2-trifluoroethyl)-1H-indol-2-yl)-1,2,4-oxadiazol-5-yl]methyl}-1,3-thiazole-4-carboxamide], the “Y220C SC150 (μM)” value is on record as “* (* = 0 μM ≤ SC150 < 0.1 μM)”.
Still for that read-out and setting: as for `CN1CC[C@H](Nc2cccc3c2cc(-c2nnc(CN)o2)n3CC(F)(F)F)[C@H](F)C1` (racemic) [Compound 116B, (+/−)-2-[5-(aminomethyl)-1,3,4-oxadiazol-2-yl]-N-[(3R,4S)-3-fluoro-1-methylpiperidin-4-yl]-1-(2,2,2-trifluoroethyl)-1H-indol-4-amine], the entry is “*** (*** = 0.5 μM ≤ SC150 < 1 μM)”; as for `CN1CC[C@@H](Nc2cccc3c2cc(-c2noc(CNC(=O)c4cnc(C(C)(C)C)s4)n2)n3CC(F)(F)F)[C@@H](F)C1` [Compound 437B, 2-tert-butyl-N-{[3-(4-{[(3S,4R)-3-fluoro-1-methylpiperidin-4-yl]amino}-1-(2,2,2-trifluoroethyl)-1H-indol-2-yl)-1,2,4-oxadiazol-5-yl]methyl}-1,3-thiazole-5-carboxamide], “* (* = 0 μM ≤ SC150 < 0.1 μM)”.
On the same count and under the same terms, then `CN1CC[C@@H](Nc2cccc3c2cc(-c2noc(CNC(=O)c4cnn(C5CCCC5OCCF)c4)n2)n3CC(F)(F)F)[C@@H](F)C1` (stereo in doubt) [Compound 377B, N-{[3-(4-{[(3S,4R)-3-fluoro-1-methylpiperidin-4-yl]amino}-1-(2,2,2-trifluoroethyl)-1H-indol-2-yl)-1,2,4-oxadiazol-5-yl]methyl}-1-[(1R,2R)-2-(2-fluoroethoxy)cyclopentyl]-1H-pyrazole-4-carboxamide], with “* (* = 0 μM ≤ SC150 < 0.1 μM)”; and `COC(=O)[C@@H]1C[C@H]1C(=O)NCc1nnc(-c2cc3c(NC4CCN(C)CC4)cccc3n2CC(F)(F)F)s1` (racemic) [Compound 75B, (+/−)-methyl (1R,2R)-2-{[(5-{4-[(1-methylpiperidin-4-yl)amino]-1-(2,2,2-trifluoroethyl)-1H-indol-2-yl}-1,3,4-thiadiazol-2-yl)methyl]carbamoyl}cyclopropane-1-carboxylate], with “* (* = 0 μM ≤ SC150 < 0.1 μM)”; and `CN1CC[C@@H](Nc2cccc3c2cc(-c2nc(CNC(=O)c4cccs4)no2)n3CC(F)(F)F)[C@@H](F)C1` (racemic) [Compound 277B, (+/−)-N-{[5-(4-{[(3R,4S)-3-fluoro-1-methylpiperidin-4-yl]amino}-1-(2,2,2-trifluoroethyl)-1H-indol-2-yl)-1,2,4-oxadiazol-3-yl]methyl}thiophene-2-carboxamide], with “* (* = 0 μM ≤ SC150 < 0.1 μM)”.
The same measure, in the same setting: as for `C[C@@H]1C[C@H]1C(=O)NCc1nnc(-c2cc3c(NC4CCN(C)CC4)cccc3n2CC(F)(F)F)s1` (racemic) [Compound 34B, (+/−)-(1R,2R)-2-methyl-N-[(5-{4-[(1-methylpiperidin-4-yl)amino]-1-(2,2,2-trifluoroethyl)-1H-indol-2-yl}-1,3,4-thiadiazol-2-yl)methyl]cyclopropane-1-carboxamide], the entry is “* (* = 0 μM ≤ SC150 < 0.1 μM)”.
As for `CC(C)Cn1cccc1C(=O)NCc1nc(-c2cc3c(N[C@@H]4CCN(C)C[C@@H]4F)cccc3n2CC(F)(F)F)no1` [Compound 535B, N-{[3-(4-{[(3S,4R)-3-fluoro-1-methylpiperidin-4-yl]amino}-1-(2,2,2-trifluoroethyl)-1H-indol-2-yl)-1,2,4-oxadiazol-5-yl]methyl}-1-(2-methylpropyl)-1H-pyrrole-2-carboxamide], the “Y220C SC150 (μM)” value is listed as “* (* = 0 μM ≤ SC150 < 0.1 μM)”.
Same read-out and setting: as for `CN1CC[C@@H](F)[C@@H](Nc2cccc3c2cc(-c2noc(CNC(=O)c4ccn(C(C)(C)C)c4)n2)n3CC(F)(F)F)C1` [Compound 415B, 1-tert-butyl-N-{[3-(4-{[(3S,4R)-4-fluoro-1-methylpiperidin-3-yl]amino}-1-(2,2,2-trifluoroethyl)-1H-indol-2-yl)-1,2,4-oxadiazol-5-yl]methyl}-1H-pyrrole-3-carboxamide], the entry is “* (* = 0 μM ≤ SC150 < 0.1 μM)”.
